Test results: patent US11642344B2, “Cholesteryl ester transfer protein (CETP) inhibitor and pharmaceutical compositions comprising said inhibitor for use in the treatment or prevention of cardiovascular diseases” (NewAmsterdam Pharma B.V., priority 2014, dated 2023)

Target: T1, CETP (Homo sapiens, UniProt P11597)
T1 construct: from tissue; host or cells: plasma of Caucasian male subjects dosed with Compound A or placebo
T1 sequence (P11597 18-493): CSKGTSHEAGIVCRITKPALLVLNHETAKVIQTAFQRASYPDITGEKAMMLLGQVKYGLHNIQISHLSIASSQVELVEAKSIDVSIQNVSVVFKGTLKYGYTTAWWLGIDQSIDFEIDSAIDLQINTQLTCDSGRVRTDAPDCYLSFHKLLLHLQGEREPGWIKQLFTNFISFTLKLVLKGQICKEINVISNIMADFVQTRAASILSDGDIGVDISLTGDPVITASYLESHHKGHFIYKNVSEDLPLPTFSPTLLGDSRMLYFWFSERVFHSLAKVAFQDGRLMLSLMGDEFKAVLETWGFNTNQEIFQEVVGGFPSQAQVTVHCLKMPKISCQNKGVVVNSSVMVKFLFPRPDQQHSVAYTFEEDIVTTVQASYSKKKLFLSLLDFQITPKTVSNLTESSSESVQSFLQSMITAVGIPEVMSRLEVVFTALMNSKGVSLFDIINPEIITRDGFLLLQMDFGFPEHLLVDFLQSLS
Test: In vitro CETP assay: 3H-labeled CE transfer from HDL to VLDL/LDL in human plasma
Assay type: biochemical
Conditions: 24 h pre-incubation at 37° C.
Protocol: Human blood was obtained from healthy male volunteers using 0.1% EDTA as an anticoagulant, and centrifuged at 3,000 rpm for 15 minutes at 4° C. Human plasma was pooled, and then used for the preparation of ^3H-labeled HDL or stored at −80° C. for CETP assay until use. The ^3H-labeled HDL was prepared with human plasma as described by Glenn and Melton (Methods in enzymology. 263; 339-351, 1996). The specific gravity of plasma was measured by a hydrometer, and the density was adjusted to 1.125 g/mL by adding solid KBr. After centrifugation at 100,000 rpm for 4 hours at 12° C. (rotor: 100.4, Optima TLX, Beckman), d>1.125 g/mL fraction was dialyzed against 4 L of Tris-saline-EDTA buffer (TSE; 50 mmol/L Tris, 150 mmol/L NaCl, 2 mmol/L EDTA, pH7.4) for 18 hours at 4° C. [1,2-^3H(N)]-Cholesterol (37 MBq/mL) was added to the dialyzed plasma fraction at the amount of 2 μCi/mL. The tube was tightly sealed under N2 gas stream and incubated at 37° C. for 18 hours with gently stirring to allow esterification of radio-labeled cholesterol by endogenous LCAT. The incubated plasma fraction was adjusted to d=1.21 g/mL with solid KBr, and centrifuged at 100,000 rpm, 12° C. for 5 hours. ^3H-labeled HDL fraction was dialyzed against 2 L of TSE at 4° C. for 18 hours. The radioactivity of ^3H-labeled HDL was counted in a liquid scintillation counter. ^3H-labeled HDL was stored at 4° C. until use.
CETP activity was determined as the rate of ^3H-labeled CE transfer from donor HDL to acceptor VLDL/LDL. Human plasma (94 μL) was pre-incubated with compounds dissolved in DMSO (1 μL) 24 hours at 37° C., and then incubated for 4 hours at 4° C. or 37° C. with 5 μL of ^3H-labeled HDL. One hundred μL of phosphotungstate/MgCl2 reagent (Wako pure chemical) were added to precipitate apoB-containing lipoproteins. After centrifugation at 3,000 rpm for 10 minutes at room temperature, the radioactivity of the supernatant was counted in a liquid scintillation counter. […] The concentration achieving 50% inhibition of CETP activity (IC50) was estimated.

CCOC(=O)N1c2ccc(C(F)(F)F)cc2[C@@H](N(Cc2cc(C(F)(F)F)cc(C(F)(F)F)c2)c2ncc(OCCCC(=O)O)cn2)C[C@H]1CC [Compound A, {4-[(2-{[3,5-bis(trifluoromethyl)benzyl][(2R,4S)-1-(ethoxycarbonyl)-2-ethyl-6-(trifluoromethyl)-1,2,3,4-tetrahydroquinolin-4-yl]amino}pyrimidin-5-yl)oxy]butanoic acid}]
IC50: 0.064 µM
